Measurements reported in paper PMC6154583, “Optimized 4,5-Diarylimidazoles as Potent/Selective Inhibitors of Protein Kinase CK1δ and Their Structural Relation to p38α MAPK” (Molecules : A Journal of Synthetic Chemistry and Natural …, 2017).

Legend:
Colo357 cells = assay: MTT viability assay; assay type: cell-based, human; conditions: mean ± SD, n = 3
Procedure: (§1) The human pancreatic cancer cell lines Colo357 [61], Panc-1 [62], and MiaPaCa-2 [63] were grown in Dulbecco’s modified Eagle’s medium (DMEM). Panc89 [64] was grown in DMEM:RPMI-1640 medium in ratio 1:1. The human colon adenocarcinoma cell line HT-29 [65] was grown in McCoy’s 5A medium. All media were supplemented with 10% fetal calf serum (FCS), 100 units·mL^−1 penicillin, 100 µg∙mL^−1 streptomycin and 2 mM glutamine. All cells were grown at 37 °C in a humidified 5% carbon dioxide atmosphere.
(§2) In order to determine the cytotoxic effects of investigated inhibitors conventional MTT assay were used. 1 × 10^4 cells∙well^−1 were seeded in 96-well cell culture plates and cultivated for 24 h. Cell lines were exposed to increasing concentrations of the indicated inhibitor compounds, with untreated and DMSO-treated cells serving as control. After an incubation period of 48 h 10 µL of MTT solution (5 mg∙mL^−1 in PBS) were added and cells were incubated for 4 h. MTT-containing medium was carefully removed and 100 µL acidic isopropanol (0.04 N HCl in isopropanol) per well were added. For dissolution of formazan crystals plates were shaken for 30 min on an orbital shaker in the dark. Finally, dissolved crystals were measured spectrophotometrically at […]. All experiments were performed in triplicate with four technical replicates per assay. Results were normalized considering the mean optical density value of control wells as 100%. GraphPad Prism 6 (La Jolla, CA, USA) software was used to calculate EC50 values.

Panc89 cells = assay: MTT viability assay; assay type: cell-based, human; conditions: 48 h incubation, mean ± SD, n = 3
Procedure: as §1, §2

HT-29 cells = assay: MTT viability assay; assay type: cell-based; conditions: Homo sapiens, dilution series
Procedure: as §1
In order to determine the cytotoxic effects of investigated inhibitors conventional MTT assay were used. 1 × 10^4 cells∙well^−1 were seeded in 96-well cell culture plates and cultivated for 24 h. Cell lines were exposed to increasing concentrations of the indicated inhibitor compounds, with untreated and DMSO-treated cells serving as control. After an incubation period of 48 h 10 µL of MTT solution (5 mg∙mL^−1 in PBS) were added and cells were incubated for 4 h. […] Finally, dissolved crystals were measured spectrophotometrically at 570 nM. […]
Figure S1. (A) HT-29 cells were treated with compounds of series 1 at 20 µM concentration and cell viability was measured by MTT viability assay. […]
screening at 20 µM concentration. Cell viability was determined by MTT assay and the EC50 value was calculated using GraphPad Prism 6. […]

MiaPaCa-2 cells = assay: MTT viability assay; assay type: cell-based, human; conditions: mean ± SD, n = 3
Procedure: as §1, §2

Panc-1 cells = assay: MTT viability assay; assay type: cell-based, human; conditions: mean ± SD, n = 3
Procedure: as §1, §2

[1] = Chemical stability in DMSO solution by HPLC analysis; assay type: physicochemical; conditions: within a short period of time after preparing a solution in DMSO
Text: The binding modes described above are based on (E)-configured cinnamic moieties of 1 and 2, respectively. […] Accordingly, computational analysis assume these (Z)-stereoisomers to be less bioactive. Furthermore, the acrylamide Michael acceptor moiety of the cinnamic acid side chain was considered responsible for the observed chemical instability of 1 and 2 in solution. […] Consequently, our primary goal towards an optimized inhibitor was to gain chemical stability. Thus, having identified the cinnamic side chain to be responsible for the chemical instability issue we aimed towards stable side chains attached at the validated 2-aminopyridine core moiety. By these modifications we set out to explore the respective hydrophobic region II formerly occupied by the cinnamic acid moiety. At the same time, both potency and selectivity for CK1δ were taken into account. Therefore, in our systematic approach four structurally divergent series of inhibitors with variable side chains (Scheme 1) have been designed based on the following considerations.
They were stable in DMSO solution at room temperature without detectable degradation over a period of 72 h by HPLC analysis.

CK1ε = test system: CK1ε; parameters: method as in PMID 19591487; conditions: cited from earlier work
CK1δ = CK1δ (Homo sapiens, UniProt P48730); parameters: method as in PMID 19591487; conditions: CK1δ versus CK1ε; cited from earlier work
CK1δ/ε = conditions: read-out: IC50 CK1δ/ε; cited from earlier work
CK1α = conditions: read-out: IC50 CK1α; cited from earlier work
[2] = Homo sapiens, COLO357, 48 h incubation
[3] = Homo sapiens, MIA PaCa-2, 48 h incubation
[4] = Homo sapiens, PANC-1, 48 h incubation

Chain of CK1δ (P48730 whole entry): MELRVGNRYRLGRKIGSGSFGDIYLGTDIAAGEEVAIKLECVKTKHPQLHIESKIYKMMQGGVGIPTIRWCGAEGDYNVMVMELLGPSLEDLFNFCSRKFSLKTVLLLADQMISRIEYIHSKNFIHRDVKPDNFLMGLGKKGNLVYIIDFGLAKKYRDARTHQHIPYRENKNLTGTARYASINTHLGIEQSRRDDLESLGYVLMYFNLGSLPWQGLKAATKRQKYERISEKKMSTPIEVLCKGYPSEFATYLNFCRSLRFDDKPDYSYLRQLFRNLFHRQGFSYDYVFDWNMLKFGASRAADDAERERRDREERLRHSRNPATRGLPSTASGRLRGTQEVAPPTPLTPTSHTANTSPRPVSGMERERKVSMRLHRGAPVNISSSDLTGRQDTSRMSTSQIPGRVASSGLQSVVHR

## COc1cccc(CCC(=O)Nc2cc(-c3nc(SC)[nH]c3-c3ccc(F)cc3)ccn2)c1OC [11c, 3-(2,3-Dimethoxyphenyl)-N-(4-(5-(4-fluorophenyl)-2-(methylthio)-1H-imidazol-4-yl)-pyridin-2-yl)-propanamide]
Colo357 cells; [2]
  EC50: 1.9 ± 0.6 µM
Panc89 cells; Homo sapiens
  EC50: 6.1 ± 3 µM

## CSc1nc(-c2ccnc(NCCc3c[nH]c4ccccc34)c2)c(-c2ccc(F)cc2)[nH]1 [10e, N-(2-(1H-Indol-3-yl)-ethyl)-4-(5-(4-fluorophenyl)-2-(methylthio)-1H-imidazol-4-yl)-pyridin-2-amine]
HT-29 cells
  EC50: 9.3 µM

## COc1cc(CCC(=O)Nc2cc(-c3nc(SC)[nH]c3-c3ccc(F)cc3)ccn2)cc(OC)c1OC [11e, 3-(3,4,5-Trimethoxyphenyl)-N-(4-(5-(4-fluorophenyl)-2-(methylthio)-1H-imidazol-4-yl)-pyridin-2-yl)-propanamide]
Colo357 cells; [2]
  EC50: 4.5 ± 1.3 µM
Panc89 cells; Homo sapiens
  EC50: 8.3 ± 2.2 µM

## COc1ccc(NC(=O)Nc2cc(-c3nc(SC)[nH]c3-c3ccc(F)cc3)ccn2)c(OC)c1 [12a, 1-(2,4-Dimethoxyphenyl)-3-(4-(5-(4-fluorophenyl)-2-(methylthio)-1H-imidazol-4-yl)-pyridin-2-yl)carbamide]
Colo357 cells; [2]
  EC50: 17.4 ± 0.04 µM
MiaPaCa-2 cells; [3]
  EC50: 15.22 ± 0.04 µM
Panc-1 cells; [4]
  EC50: 16.1 ± 5.6 µM
Panc89 cells; Homo sapiens
  EC50: 19.6 ± 3.8 µM

## COc1ccc(-c2cc(C(=O)Nc3cc(-c4nc(SC)[nH]c4-c4ccc(F)cc4)ccn3)n(C)c2)c(OC)c1 [16a, 4-(2,4-Dimethoxyphenyl)-N-(4-(5-(4-fluorphenyl)-2-(methylthio)-1H-imidazol-4-yl)-pyridin-2-yl)-1-methyl-1H-pyrrole-2-carboxamide]
MiaPaCa-2 cells; [3]
  EC50: 2.4 ± 0.7 µM
Panc-1 cells; [4]
  EC50: 5.1 ± 1.6 µM

## COc1ccc(/C=C/C(=O)Nc2cc(-c3nc(SC)[nH]c3-c3ccc(F)cc3)ccn2)c(OC)c1 [compound 1]
[1]
  chemical stability in DMSO solution (HPLC analysis): increasing number of not identifiable degradation products
CK1ε
  IC50: 0.073 µM

## CSc1nc(-c2ccnc(NC(=O)Nc3ccc(C)c(Cl)c3)c2)c(-c2ccc(F)cc2)[nH]1 [12e, 1-(3-Chloro-4-methylphenyl)-3-(4-(5-(4-fluorophenyl)-2-(methylthio)-1H-imidazol-4-yl)-pyridin-2-yl)-carbamide]
Colo357 cells; 48 h incubation
  EC50: 14.9 ± 2.6 µM
Panc89 cells
  EC50: 7.5 ± 3 µM

## COc1ccc(CCC(=O)Nc2cc(-c3nc(SC)[nH]c3-c3ccc(F)cc3)ccn2)cc1OC [11d, 3-(3,4-Dimethoxyphenyl)-N-(4-(5-(4-fluorophenyl)-2-(methylthio)-1H-imidazol-4-yl)-pyridin-2-yl)-propanamide]
Colo357 cells; [2]
  EC50: 5.9 ± 2.4 µM
Panc89 cells; Homo sapiens
  EC50: 7.8 ± 0.4 µM

## COc1ccc(OC)c(NC(=O)Nc2cc(-c3nc(SC)[nH]c3-c3ccc(F)cc3)ccn2)c1 [12b, 1-(2,5-Dimethoxyphenyl)-3-(4-(5-(4-fluorophenyl)-2-(methylthio)-1H-imidazol-4-yl)-pyridin-2-yl)carbamide]
Colo357 cells; 48 h incubation
  EC50: 15.5 ± 1.6 µM
MiaPaCa-2 cells; 48 h incubation
  EC50: 11.6 ± 1.1 µM
Panc-1 cells; 48 h incubation
  EC50: 15.2 ± 2.6 µM

## COc1ccc(OC)c(-c2cc(C(=O)Nc3cc(-c4nc(SC)[nH]c4-c4ccc(F)cc4)ccn3)n(C)c2)c1 [16b, 4-(2,5-Dimethoxyphenyl)-N-(4-(5-(4-fluorphenyl)-2-(methylthio)-1H-imidazol-4-yl)-pyridin-2-yl)-1-methyl-1H-pyrrole-2-carboxamide]
Colo357 cells; 48 h incubation
  EC50: 5.7 ± 2.2 µM
MiaPaCa-2 cells; 48 h incubation
  EC50: 2.3 ± 0.2 µM
Panc-1 cells; 48 h incubation
  EC50: 5.4 ± 1.5 µM
Panc89 cells
  EC50: 7.3 ± 1.9 µM

## COc1ccc(CCC(=O)Nc2cc(-c3nc(SC)[nH]c3-c3ccc(F)cc3)ccn2)c(OC)c1 [11a, 3-(2,4-Dimethoxyphenyl)-N-(4-(5-(4-fluorophenyl)-2-(methylthio)-1H-imidazol-4-yl)-pyridin-2-yl)propanamide]
Colo357 cells; [2]
  EC50: 4.1 ± 1.7 µM
MiaPaCa-2 cells; [3]
  EC50: 4.9 ± 0.8 µM
Panc-1 cells; [4]
  EC50: 7 ± 0.7 µM
Panc89 cells; Homo sapiens
  EC50: 2.5 ± 1 µM

## COc1ccc(C=CC(=O)Nc2cc(-c3nc([S+](C)[O-])[nH]c3-c3ccc(F)cc3)ccn2)c(OC)c1 (stereo not drawn) [compound 2]
[1]
  chemical stability in DMSO solution (HPLC analysis): increasing number of not identifiable degradation products
CK1δ
  discrimination of isoforms δ and ε: at least 40 fold
CK1ε
  IC50: 0.447 µM

## COc1ccc(-c2cc(C(=O)Nc3cc(-c4nc([S+](C)[O-])[nH]c4-c4ccc(F)cc4)ccn3)n(C)c2)c(OC)c1 (stereo not drawn) [16c, 4-(2,4-Dimethoxyphenyl)-N-(4-(5-(4-fluorophenyl)-2-(methylsulfinyl)-1H-imidazol-4-yl)-pyridin-2-yl)-1-methyl-1H-pyrrol-2-carboxamide]
Colo357 cells; [2]
  EC50: 16.7 ± 5.6 µM
MiaPaCa-2 cells; [3]
  EC50: 7.7 ± 2.5 µM
Panc-1 cells; [4]
  EC50: 10.2 ± 3.2 µM

## COc1cc(OC)c(C=C2C(O)=Nc3ccccc32)c(OC)c1 [IC261]
CK1δ/ε
  IC50: 1 µM
CK1α
  IC50: 10 µM
